Results reported in the PolyMetriX glass transition set.
± gives the standard deviation of the reports.

Going from `*Oc1ccccc1C(=O)OC(=O)c1ccccc1OC(=O)CCCCC(*)=O` (repeat unit) to `*Oc1ccc(CC(NC(=O)CCc2ccc(OC(=O)CCCCC(*)=O)cc2)C(=O)OC)cc1` (repeat unit), the glass transition temperature rises from 55.00 °C to 70.00 °C.

Going from `*c1ccc(Oc2ccc(Oc3ccc(-c4cnc5ccc(-c6ccc7ncc(*)nc7c6)cc5n4)cc3)cc2)cc1` (repeat unit) to `*c1ccc2oc(-c3ccc(Oc4ccc(-c5nc6cc(C(*)(c7ccccc7)C(F)(F)F)ccc6o5)cc4)cc3)nc2c1` (repeat unit), the glass transition temperature rises from 235.00 °C to 299.00 °C.

Compared with `*C(OC(F)(F)F)C(*)(F)F` (repeat unit), `*CC(*)C(=O)OCCCOc1ccc(C(=O)OCCCC(F)(F)C(F)(F)C(F)(F)C(F)(F)C(F)(F)C(F)(F)C(F)(F)C(F)(F)F)cc1` (repeat unit) is higher in glass transition temperature: -10.00 °C for the first, 48.00 °C for the second.

First: *Oc1ccc(C(c2ccc(OC(=O)c3ccc(OCCCCCCCCCCOc4ccc(C(*)=O)cc4)cc3)cc2)(C(F)(F)F)C(F)(F)F)cc1 (repeat unit)
Second: *CCCCCCOC(=O)Nc1ccc(C)c(NC(=O)OCCCCCCOc2ccc(-c3ccc(O*)cc3)cc2)c1 (repeat unit)
The glass transition temperature of the first is higher: 89.00 °C for the first, 87.00 °C for the second.

First: */C=C/C1CC(*)C([Si](C)(C)C)C1 (repeat unit)
Second: */C=C/C1CC(*)C2C(=O)N(CCCCCCCCCC)C(=O)C12 (repeat unit)
The glass transition temperature of the first is higher: 113.00 °C for the first, 46.00 °C for the second.

First: *Oc1c(Cl)cc(C(C)(C)c2cc(Cl)c(OC(=O)CCCCC(*)=O)c(Cl)c2)cc1Cl (repeat unit)
Second: *CC(O)COc1c(Cl)cc(C(C)(C)c2cc(Cl)c(O*)c(Cl)c2)cc1Cl (repeat unit)
The glass transition temperature of the first is lower: 100.00 °C for the first, 135.00 °C for the second.

Going from `*Nc1cccc(CCc2ccc(NC(=O)c3ccc(C(*)=O)cc3)cc2)c1` (repeat unit) to `*Oc1ccc2ccc(Oc3ccc(C(=O)Nc4cccc(NC(=O)c5ccc(*)cc5)c4)cc3)cc2c1` (repeat unit), the glass transition temperature falls from 203.00 °C to 168.00 °C.

First: *O[Si](C)(C)O[Si](C)(C)O[Si](C)(C)O[Si](C)(C)Oc1c(C)cc(-c2cc(C)c(*)c(C)c2)cc1C (repeat unit)
Second: *c1c(C)cc(-c2cc(C)c(N3C(=O)c4cccc(Oc5c(C)cc(-c6cc(C)c(Oc7cccc8c7C(=O)N(*)C8=O)c(C)c6)cc5C)c4C3=O)c(C)c2)cc1C (repeat unit)
The glass transition temperature of the first is lower: -16.00 °C for the first, 327.00 °C for the second.

Going from `*CC(*)(C)C(=O)OCCCCCCN(C)c1ccc(N(C)C)cc1` (repeat unit) to `*CC(*)(C)C(=O)OCCCCCC(=O)Oc1ccc(OC(=O)c2ccc(OCCC)cc2)cc1` (repeat unit), the glass transition temperature rises from 8.50 °C to 45.00 °C.

Going from `*c1ccc(OCCOCCOCCOc2cccc(N3C(=O)c4ccc(Oc5ccc6c(c5)C(=O)N(*)C6=O)cc4C3=O)c2)cc1` (repeat unit) to `*c1ccc(Oc2ccc(Sc3ccc(Oc4ccc(N5C(=O)c6ccc(Oc7ccc(Oc8ccc9c(c8)C(=O)N(*)C9=O)cc7)cc6C5=O)cc4)cc3)cc2)cc1` (repeat unit), the glass transition temperature rises from 107.00 °C to 201.00 °C.

First: *CCCCCCCCCCOc1ccc(/C=C/c2ccc(OCCCCCCCCCCOP(=O)(O*)OCCCCCCCCCCOc3ccc(/N=N/c4ccc([N+](=O)[O-])cc4)cc3)cc2)cc1 (repeat unit)
Second: */C=C/c1cc(CCCCCCCCCCCCCCCC)c(/C=C/c2nc(*)c(C#N)c(/C=C/c3ccc(N(c4ccccc4)c4ccccc4)cc3)c2C#N)cc1CCCCCCCCCCCCCCCC (repeat unit)
The glass transition temperature of the first is lower: 50.00 °C for the first, 165.00 °C for the second.

Compared with `*CCc1ccc(*)c2ccccc12` (repeat unit), `*c1ccc2oc3ccc(S(*)(=O)=O)cc3c2c1` (repeat unit) is higher in glass transition temperature: 160.00 °C for the first, 360.00 °C for the second.

Going from `*c1ccc2c(c1)C(=O)N(c1ccc3c(c1)Cc1cc(N4C(=O)c5ccc(C(*)(C(F)(F)F)C(F)(F)F)cc5C4=O)ccc1-3)C2=O` (repeat unit) to `*c1ccc2c(c1)C(=O)N(c1ccc(Oc3ccc(N4C(=O)c5ccc(C(*)(C(F)(F)F)C(F)(F)F)cc5C4=O)cc3)cc1)C2=O` (repeat unit), the glass transition temperature falls from 394.00 °C to 295.50 ± 11 °C.

Compared with `*C(=O)Nc1ccc(Oc2ccc(NC(=O)c3ccc4c(c3)C(=O)N(c3ccc(Oc5ccc(C6(c7ccc(Oc8ccc(N9C(=O)c%10ccc(*)cc%10C9=O)cc8)cc7)CC7CC6C6CCCC76)cc5)cc3)C4=O)cc2)cc1` (repeat unit), `*C(=O)c1ccc(Oc2ccc(C(C)(C)c3ccc(Oc4ccc(C(=O)c5ccc6c(c5)C(=O)N(c5ccc(Oc7ccc(N8C(=O)c9ccc(*)cc9C8=O)cc7)cc5)C6=O)cc4)cc3)cc2)cc1` (repeat unit) is lower in glass transition temperature: 250.00 °C for the first, 217.00 °C for the second.

Compared with `*Oc1cccc(Oc2ccc(C(=O)c3ccc(*)cc3)cc2)c1` (repeat unit), `*Oc1ccc(C(C)(C)C)cc1Oc1ccc(S(=O)(=O)c2ccc(*)cc2)cc1` (repeat unit) is higher in glass transition temperature: 125.00 °C for the first, 180.50 °C for the second.

First: *Oc1ccc(-c2ccc(Oc3ccc(Oc4cc(Oc5ccc(*)cc5)ccc4CCCCCC)cc3)c3ccccc23)c2ccccc12 (repeat unit)
Second: *c1ccc(Oc2cccc(Oc3ccc(N4C(=O)c5cccc(Oc6ccc(C(=O)c7ccc(Oc8cccc9c8C(=O)N(*)C9=O)cc7)cc6)c5C4=O)cc3)c2)cc1 (repeat unit)
The glass transition temperature of the first is lower: 150.00 °C for the first, 216.00 °C for the second.

First: *Oc1ccc(Oc2cccc(*)n2)c(-c2ccccc2)c1 (repeat unit)
Second: *Oc1ccc(NC(=O)c2cc(C(=O)Nc3ccc(*)cc3)cc(C(C)(C)C)c2)cc1 (repeat unit)
The glass transition temperature of the first is lower: 115.00 °C for the first, 268.00 °C for the second.

Compared with `*Oc1ccc(CNC(=O)c2ccc(C(=O)NCc3ccc(OC4COC5C(*)COC45)cc3)cc2)cc1` (repeat unit), `*Oc1ccc(CC(NC(=O)CCc2ccc(OC(*)=O)cc2)C(=O)OCC)cc1` (repeat unit) is lower in glass transition temperature: 122.00 °C for the first, 96.00 °C for the second.

Going from `*CCCCCCOC(=O)c1cc(/N=N/c2ccc(OCC)cc2)ccc1-c1ccc(/N=N/c2ccc(OCC)cc2)cc1C(=O)O*` (repeat unit) to `*CC(*)C(=O)OCCCCCCOc1ccc(/N=N/c2ccc([N+](=O)[O-])cc2)cc1` (repeat unit), the glass transition temperature falls from 83.00 °C to 35.80 °C.

First: *c1cccc(P(=O)(c2ccccc2)c2cccc(-n3c(=O)c4cc5c(=O)n(*)c(=O)c5c(-c5cc(C(F)(F)F)cc(C(F)(F)F)c5)c4c3=O)c2)c1 (repeat unit)
Second: *c1ccc(-c2ccc(NC(=O)c3cccc(C(=O)Nc4ccc(-c5ccc(-n6c(=O)c7cc8c(=O)n(*)c(=O)c8cc7c6=O)cc5)cc4)c3)cc2)cc1 (repeat unit)
The glass transition temperature of the first is higher: 299.00 °C for the first, 227.00 °C for the second.

First: *CCCNC(=O)C(OC)C(OC)C(=O)N* (repeat unit)
Second: *CCCCCCNC(=O)c1cc(C(=O)N*)cc(C(C)(C)C)c1 (repeat unit)
The glass transition temperature of the first is lower: 123.00 °C for the first, 163.00 °C for the second.

Compared with `*c1ccc(OC(=O)Nc2ccc(-c3ccc(NC(=O)Oc4ccc(-c5nc(-c6ccc([N+](=O)[O-])cc6)[nH]c5*)cc4)cc3OC)c(OC)c2)cc1` (repeat unit), `*Oc1ccc(S(=O)(=O)c2ccc(Oc3ccc(NC(=O)c4cc(C(=O)Nc5ccc(*)cc5)cc(C(C)(C)C)c4)cc3)cc2)cc1` (repeat unit) is higher in glass transition temperature: 202.00 °C for the first, 232.50 °C for the second.

Going from `*CCC(=O)NCc1cc(C)c(CNC(=O)CCO*)cc1C` (repeat unit) to `*CCCCC(=O)NCc1ccc(CNC(=O)CCCCO*)cc1` (repeat unit), the glass transition temperature falls from 80.00 °C to 70.00 °C.

First: *Oc1ccc(C(C)(C)c2ccc(OC(=O)CCCCCCCCC(*)=O)cc2)cc1 (repeat unit)
Second: *Oc1ccc(C(C)(C)c2cccc(C(C)(C)c3ccc(Oc4ccc(C(=O)Nc5cccc(NC(=O)c6ccc(*)cc6)c5)cc4)cc3)c2)cc1 (repeat unit)
The glass transition temperature of the first is lower: 14.2 °C for the first, 155.00 °C for the second.

Compared with `*CC(c1ccccc1)C1C(=O)N(c2ccccc2)C(=O)C1*` (repeat unit), `*c1ccc(Cc2ccc(-n3nc(-c4ccccc4)cc3-c3cccc(-c4cc(-c5ccccc5)nn4*)c3)cc2)cc1` (repeat unit) is higher in glass transition temperature: 221.00 °C for the first, 225.00 °C for the second.

First: *C(=O)Nc1cccc(NC(=O)c2ccc3c(c2)C(=O)N(c2ccc(Oc4ccc5ccc(Oc6ccc(N7C(=O)c8ccc(*)cc8C7=O)cc6)cc5c4)cc2)C3=O)c1 (repeat unit)
Second: *C(=O)Nc1cccc(Oc2ccc(S(=O)(=O)c3ccc(Oc4cccc(NC(=O)c5ccc(N6C(=O)c7ccc(*)cc7C6=O)cc5)c4)cc3)cc2)c1 (repeat unit)
The glass transition temperature of the first is higher: 286.00 °C for the first, 235.00 °C for the second.

Compared with `*CCOCCOC(=O)c1ccc(-c2ccc(C(=O)O*)cc2)cc1` (repeat unit), `*Oc1ccc(Oc2ccc(C(=O)c3ccc(*)c(S(=O)(=O)O)c3)cc2S(=O)(=O)O)cc1S(=O)(=O)O` (repeat unit) is higher in glass transition temperature: 50.00 °C for the first, 248.00 °C for the second.

First: *c1ccc(-c2cc(CCCCCCBr)c(*)s2)s1 (repeat unit)
Second: *c1cc(CCCCBr)c(*)s1 (repeat unit)
The glass transition temperature of the first is higher: 51.00 °C for the first, 19.00 °C for the second.

First: *CC(*)(C)C(=O)OCC1COC(=O)O1 (repeat unit)
Second: *C(=O)OCCOC(=O)N1CCN(*)CC1 (repeat unit)
The glass transition temperature of the first is higher: 124.00 °C for the first, 60.00 °C for the second.

First: *CCC1C(=O)N(CCCCCCCCCCCCCCCC)C(=O)C1* (repeat unit)
Second: *CCCCCCCCCNC(=O)CCCCC(=O)N* (repeat unit)
The glass transition temperature of the first is lower: 65.60 °C for the first, 68.00 °C for the second.

Compared with `*CC(*)c1ccc(C(C)C)cc1` (repeat unit), `*c1ccc(Sc2ccc(-n3c(=O)c4cc5c(=O)n(*)c(=O)c5cc4c3=O)cc2)cc1` (repeat unit) is higher in glass transition temperature: 62.40 °C for the first, 400.00 °C for the second.

First: *c1ccc2c(c1)C(=O)N(C1CCC(CC3CCC(N4C(=O)c5ccc(C(*)(C(F)(F)F)C(F)(F)F)cc5C4=O)CC3)CC1)C2=O (repeat unit)
Second: *C(=O)Nc1ccc(C2(c3ccc(NC(=O)c4ccc5c(c4)C(=O)N(c4cccc(N6C(=O)c7ccc(*)cc7C6=O)c4)C5=O)cc3)c3ccccc3-c3ccccc32)cc1 (repeat unit)
The glass transition temperature of the first is higher: 265.00 °C for the first, 209.00 °C for the second.

Work on `*c1ccc(N(c2ccc(C#N)cc2)c2ccc(-n3c(=O)c4cc5c(=O)n(*)c(=O)c5cc4c3=O)cc2)cc1` (repeat unit) yielded a glass transition temperature of 353.00 °C.
